Measured values reported in patent US20130122541A1, “MICROORGANISM PRODUCTION OF HIGH-VALUE CHEMICAL PRODUCTS, AND RELATED COMPOSITIONS, METHODS AND SYSTEMS” (The Regents of the University of Colorado, priority 2010, published 2013).
Read-outs that look alike come from different tables or passages of the source.

Experiments:
Assay in all cases: microbe, parasite or virus in culture
[1] = test system: Yeast strains (S288C background); assay type: cell-based, Saccharomyces cerevisiae; settings: anaerobic; for % Increase Over Control: 3-HP MIC with named supplement(s) vs S288C in SD without supplement; for average MIC Assay Result (g/L 3-HP): MIC of 3-HP; for average MIC Assay Result (g/L 3-HP) / MIC: S288C, SD media plus the named supplement(s); for MIC: Saccharomyces cerevisiae, read-out: Average MIC Assay Result (g/L 3-HP), MIC of 3-HP
Experimental: The minimum inhibitory concentration (MIC) was determined anaerobically in a 96 well-plate format. […] A 1% (v/v) inoculum was introduced into a 5 ml culture of SD minimal media without vitamins. After the cells reached mid-exponential phase, the culture was diluted to an OD600 of 0.200. The cells were further diluted 1:5 and a 10 μL aliquot was used to inoculate each well of a 96 well plate (˜10^4 cells per well) to total volume of 100 uL. […] Plates were incubated for 72 hours at 30 C. […] Plates were sealed in biobag anaerobic chambers that contained gas generators for anaerobic conditions and incubated for 72 hours at 30 C.

E. coli [2] = assay type: cell-based; settings: for % Increase Over Control: increase of 3-HP MIC over BW25113 in M9 without supplements, M9 media with the named supplement(s)
Experimental: (§1) For MIC evaluations, the final results are expressed in chemical agent concentrations determined by analysis of the stock solution by HPLC (i.e., see Subsection IIIb).
The minimum inhibitory concentration (MIC) was determined aerobically in a 96 well-plate format. […] Media supplements were added according to levels reported in the Supplements Table, where specified. Overnight cultures of strains were grown in triplicate in 5 mL LB (with antibiotic where appropriate). A 1% (v/v) inoculum was introduced into a 5 ml culture of M9 minimal media.

E. coli [3] = assay type: cell-based; settings: anaerobic; for % Increase Over Control: 3-HP MIC with named supplement(s) vs BW25113 in M9 without supplement; for MIC Assay Result (g/L 3-HP): MIC of 3-HP, BW25113, M9 media plus the named supplement(s), 24-hour
Experimental: as §1
The minimum inhibitory concentration (MIC) was determined anaerobically in a 96 well-plate format. […] Media supplements were added according to levels reported in the Supplements Table, where specified. Overnight cultures of strains were grown in triplicate in 5 mL LB (with antibiotic where appropriate). A 1% (v/v) inoculum was introduced into a 5 ml culture of M9 minimal media.

[4] = MIC of 3-HP for strain BW25113, M9 media with the named supplement(s), aerobic, 24-hour MIC evaluation

| SMILES | % Increase Over Control [1] | average MIC Assay Result (g/L 3-HP) [1] | average MIC Assay Result (g/L 3-HP) (E. coli [2]; [4]) | % Increase Over Control (E. coli [2]; aerobic) | MIC [1] | % Increase Over Control (E. coli [3]) | MIC Assay Result (g/L 3-HP) (E. coli [3]) | average MIC Assay Result (g/L 3-HP) (E. coli [2]) |
| --- | --- | --- | --- | --- | --- | --- | --- | --- |
| O=C(O)O [Bicarbonate (C)] | 140% | 90 g/L | 44 g/L 3-HP | 59% | – | – | – | – |
| NCCCCCN [Cadaverine (C)] | 60% | – | 35 g/L 3-HP | – | 60 g/L | – | – | – |
| NC(=O)CC[C@H](N)C(=O)O [Glutamine (C)] | – | – | 30 g/L 3-HP | 9% | – | – | – | – |
| NC(CCS)C(=O)O (stereo not drawn) [Homocysteine (B)] | 7% | 40 g/L | 30 g/L 3-HP | 9% | – | – | – | – |
| N[C@@H](CCO)C(=O)O [Homoserine (B)] | – | – | 35 g/L 3-HP | – | – | – | – | – |
| CC[C@H](C)[C@H](N)C(=O)O [Isoleucine (B)] | 2% | 38 g/L | 32 g/L 3-HP | 17% | – | – | – | – |
| NCCCC[C@H](N)C(=O)O [Lysine (D)] | 20% | 45 g/L | 37 g/L 3-HP | 33% | – | 39% | 41.7 g/L | – |
| NCCC[C@H](N)C(=O)O [Ornithine (C)] | – | – | 30 g/L 3-HP | 9% | – | – | – | – |
| N[C@@H](Cc1ccccc1)C(=O)O [Phenylalanine (A)] | 2% | – | 32 g/L 3-HP | 17% | 38 g/L | – | – | – |
| NCCCCN [Putrescine (C)] | – | – | – | – | – | – | – | 30 g/L 3-HP |
| N[C@@H](CO)C(=O)O [Serine (B)] | 20% | 45 g/L | 32 g/L 3-HP | 17% | – | 7% | 32.1 g/L | – |
| NCCCCNCCCN [Spermidine (C)] | 60% | – | 40 g/L 3-HP | – | 60 g/L | – | – | – |
| Nc1nc(=O)c2c([nH]1)NC[C@@H](CNc1ccc(C(=O)N[C@@H](CCC(=O)O)C(=O)O)cc1)N2 [Tetrahydrofolate (A)] | – | – | 30 g/L 3-HP | 9% | – | 33% | 40.0 g/L | – |
| C[C@@H](O)[C@H](N)C(=O)O [Threonine (B)] | 2% | – | 32 g/L 3-HP | – | 38 g/L | – | – | – |
| Nc1ccc(C(=O)O)cc1 [p-aminobenzoate (A)] | – | – | 35 g/L 3-HP | 27% | – | 33% | 40.0 g/L | – |
